Test results as given in ChEMBL document CHEMBL1201862, “PubChem BioAssay data set” (2004).
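Five compound concentrations were applied to cells in 96-well plates for 48 hours; endpoints were derived by simple linear interpolation of the resulting dose-response curve. GI50: concentration for 50% inhibition of growth.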 The source made the active and inactive calls. Cut-off read from the data, not from the text of the source: active = GI50 up to about 1.1 µM and inactive = higher.

Columns and labels:
Experiment in all cases: DTP human tumour cell line panel, 48 h
BT-549 = tested on: BT-549
CAKI-1 = tested on: CAKI-1
COLO 205 = tested on: COLO 205
HT-29 = tested on: HT-29
Hs-578T = tested on: Hs-578T
IGROV-1 = tested on: IGROV-1
MCF7 = tested on: MCF7
MDA-MB-435 = tested on: MDA-MB-435
NCI-H522 = tested on: NCI-H522
NCI/ADR-RES = tested on: NCI/ADR-RES
SF-295 = tested on: SF-295
SN12C = tested on: SN12C
SNB-75 = tested on: SNB-75
T47D = tested on: T47D
UACC-257 = tested on: UACC-257
CCRF-CEM = tested on: CCRF-CEM
RXF 393 = tested on: RXF 393
HOP-92 = tested on: HOP-92

Row | SMILES | GI50 (BT-549) | GI50 (CAKI-1) | GI50 (COLO 205) | GI50 (HT-29) | GI50 (Hs-578T) | GI50 (IGROV-1) | GI50 (MCF7) | GI50 (MDA-MB-435) | GI50 (NCI-H522) | GI50 (NCI/ADR-RES) | GI50 (SF-295) | GI50 (SN12C) | GI50 (SNB-75) | GI50 (T47D) | GI50 (UACC-257) | GI50 (CCRF-CEM) | GI50 (RXF 393) | GI50 (HOP-92)
1 | COc1cc2nc(-c3cccs3)nc(Cl)c2cc1OC | > 100 µM (inactive) | 80.2 µM (inactive) | > 100 µM (inactive) | 61.7 µM (inactive) | > 100 µM (inactive) | > 100 µM (inactive) | 23.4 µM (inactive) | > 100 µM (inactive) | > 100 µM (inactive) | > 100 µM (inactive) | > 100 µM (inactive) | > 100 µM (inactive) | > 100 µM (inactive) | > 100 µM (inactive) | 68.9 µM (inactive) | – | – | –
2 | Cc1nc(N)c(N2CCN(C#N)CC2)c(O)n1 | > 100 µM (inactive) | – | > 100 µM (inactive) | > 100 µM (inactive) | > 100 µM (inactive) | – | > 100 µM (inactive) | > 100 µM (inactive) | > 100 µM (inactive) | > 100 µM (inactive) | > 100 µM (inactive) | > 100 µM (inactive) | > 100 µM (inactive) | > 100 µM (inactive) | > 100 µM (inactive) | > 100 µM (inactive) | – | –
3 | Nc1cc2[nH]c(=O)c3cc(Cl)ccc3c2cc1Cl | > 100 µM (inactive) | 8.38 µM (inactive) | 43.9 µM (inactive) | 22.3 µM (inactive) | 39.1 µM (inactive) | 4.07 µM (inactive) | 0.149 µM (active) | 14.3 µM (inactive) | 13.4 µM (inactive) | 13.3 µM (inactive) | 9.12 µM (inactive) | 10.2 µM (inactive) | 15.5 µM (inactive) | 12.3 µM (inactive) | 21.1 µM (inactive) | 18.7 µM (inactive) | – | –
4 | CC(=O)N1c2ccccc2C2=NN=C(N(C)C)SC21 (stereo unspecified) | 9.35 µM (inactive) | – | 3.3 µM (inactive) | 4.86 µM (inactive) | 13.5 µM (inactive) | – | 4.06 µM (inactive) | 6.56 µM (inactive) | 2.3 µM (inactive) | 2.75 µM (inactive) | 2.41 µM (inactive) | 2.08 µM (inactive) | 13.6 µM (inactive) | 3.52 µM (inactive) | 3.64 µM (inactive) | 2.1 µM (inactive) | – | –
5 | Oc1ccc2c(c1)CCc1c-2n(CCN2CCOCC2)c2ccc(O)cc12 | 31.3 µM (inactive) | 24.8 µM (inactive) | 56.2 µM (inactive) | – | 32.8 µM (inactive) | 11 µM (inactive) | 23.5 µM (inactive) | 44.4 µM (inactive) | – | 21 µM (inactive) | 47.2 µM (inactive) | > 100 µM (inactive) | 16.8 µM (inactive) | 31.1 µM (inactive) | 37.2 µM (inactive) | 38.2 µM (inactive) | 30.5 µM (inactive) | –
6 | C=C1CC/C=C(/C(=O)O)CC[C@H]2[C@@H]1CC2(C)C | > 100 µM (inactive) | > 100 µM (inactive) | > 100 µM (inactive) | > 100 µM (inactive) | > 100 µM (inactive) | > 100 µM (inactive) | > 100 µM (inactive) | > 100 µM (inactive) | > 100 µM (inactive) | – | > 100 µM (inactive) | > 100 µM (inactive) | – | > 100 µM (inactive) | > 100 µM (inactive) | > 100 µM (inactive) | > 100 µM (inactive) | 70 µM (inactive)
7 | O=C(O)Cn1ccc(=O)c2ccc([N+](=O)[O-])cc21 | > 100 µM (inactive) | > 100 µM (inactive) | > 100 µM (inactive) | > 100 µM (inactive) | > 100 µM (inactive) | > 100 µM (inactive) | > 100 µM (inactive) | > 100 µM (inactive) | > 100 µM (inactive) | > 100 µM (inactive) | > 100 µM (inactive) | > 100 µM (inactive) | 38.4 µM (inactive) | > 100 µM (inactive) | > 100 µM (inactive) | > 100 µM (inactive) | – | –
